Results published in patent US5281604A, “Angiotensin II receptor blocking 2,3,6-substituted quinazolinones” (American Cyanamid Company, priority 1993, dated 1994).
“And” between values parts separate entries of the source, which are not always exact repeats. Identical values can stand only once.

Tested on: ANGIOTENSIN II (AII) VASOPRESSOR RESPONSE
Assay: AII Challenge: blockade of the angiotensin II vasopressor response in conscious spontaneously hypertensive rats
Format: in vivo, rat (Male Okamoto-Aoki SHR)
Excerpt: By administering a compound of this invention to a rat, and then challenging with angiotensin II, a blockage of the vasopressor response is realized.
Conscious Male Okamoto-Aoki SHR, 16-20 weeks old, weighing approximately 330 g are purchased from Charles River Labs (Wilmington, Mass.). Conscious rats are restrained in a supine position with elastic tape. The area at the base of the tail is locally anesthetized by subcutaneous infiltration with 2% procaine. The ventral caudal artery and vein are isolated, and a cannula made of polyethylene (PE) 10-20 tubing (fused together by heat) is passed into the lower abdominal aorta and vena cava, respectively. The cannula is secured, heparinized (1,000 I.U./ml), sealed and the wound is closed. The animals are placed in plastic restraining cages in an upright position. The cannula is attached to a Statham P23Db pressure transducer, and pulsatile blood pressure is recorded to 10-15 minutes with a Gould Brush recorder. (Chan et al., (Drug Development Res., 18:75-94, 1989).
Angiotensin II (human sequence, Sigma Chem. Co., St. Louis, Mo.) of 0.05 and 0.1 ug/kg i.v. is injected into all rats (predosing response). Then a test compound, vehicle or a known angiotensin II antagonist is administered i.v., i.p. or orally to each set of rats. The two doses of angiotensin II are given to each rat again at 30, 60, 90, 120, 180, 240 and 300 minutes post dosing the compound or vehicle. The vasopressor response of angiotensin II is measured for the increase in systolic blood pressure in mmHg. The percentage of antagonism or blockade of the vasopressor response of angiotensin II by a compound is calculated using the vasopressor response (increase in systolic blood pressure) of angiotensin II of each rat predosing the compound as 100%. A compound is considered active if at 30 mg/kg i.v. it antagonized at least 50% of the response.

[1] = 1 mg/kg i.v., AII 0.05 mcg/kg IV, 30 min post dose
[2] = 1 mg/kg i.v., AII 0.1 mcg/kg IV, 30 min post dose
[3] = 29 mg/kg i.v., AII 0.05 mcg/kg IV, 60 min post dose
[4] = 29 mg/kg i.v., AII 0.05 mcg/kg IV, 90 min post dose
[5] = 29 mg/kg i.v., AII 0.05 mcg/kg IV, 120 min post dose
[6] = 29 mg/kg i.v., AII 0.05 mcg/kg IV, 180 min post dose
[7] = 29 mg/kg i.v., AII 0.05 mcg/kg IV, 240 min post dose
[8] = 29 mg/kg i.v., AII 0.05 mcg/kg IV, 300 min post dose
[9] = 29 mg/kg i.v., AII 0.1 mcg/kg IV, 60 min post dose
[10] = 29 mg/kg i.v., AII 0.1 mcg/kg IV, 90 min post dose
[11] = 29 mg/kg i.v., AII 0.1 mcg/kg IV, 120 min post dose
[12] = 29 mg/kg i.v., AII 0.1 mcg/kg IV, 180 min post dose
[13] = 29 mg/kg i.v., AII 0.1 mcg/kg IV, 240 min post dose
[14] = 29 mg/kg i.v., AII 0.1 mcg/kg IV, 300 min post dose

**Q.** `CCCCc1nc2ccc(C3CC4C(O3)ON(c3ccccc3)C4c3ccccc3)cc2c(=O)n1Cc1ccc(-c2ccccc2-c2nnn[nH]2)cc1` (stereo not drawn) [Example 10, (3α, 3aβ, 5β, 6aβ)-2-Butyl-6-(hexahydro-2,3-diphenylfuro[3,2-d]isoxazol-5-yl)-3-[[2'-(1H-tetrazol-5-yl)[1,1'-biphenyl]-4-yl]methyl]-4(3H)-quinazolinone] was tested. Which “% Inhibition” value [1] did it give?
**A.** Its value is 39%.

**Q.** And the “Average Change” value [1]?
**A.** Its value is 33.5 mmHg.

**Q.** What about the “Control Before AII (single rat)” value [1] of the same compound?
**A.** Its value is 248 mmHg and 230 mmHg.

**Q.** And the “Response After AII (single rat)” value [1]?
**A.** The value was 290 mmHg and 255 mmHg.

**Q.** What about the “Response Change (single rat)” value [1] of the same compound?
**A.** The value was 42 mmHg and 25 mmHg.

**Q.** What about the “% Inhibition” value [2] of the same compound?
**A.** The value was 41%.

**Q.** What about the “Average Change” value [2] of the same compound?
**A.** Its value is 42.5 mmHg.

**Q.** And the “Control Before AII (single rat)” value [2]?
**A.** Its value is 250 mmHg and 220 mmHg.

**Q.** And the “Response After AII (single rat)” value [2]?
**A.** The value was 295 mmHg and 260 mmHg.

**Q.** And the “Response Change (single rat)” value [2]?
**A.** Its value is 45 mmHg and 40 mmHg.

**Q.** And the “% Inhibition” value [3]?
**A.** Its value is 82%.

**Q.** And the “Average Change” value [3]?
**A.** The value was 10 mmHg.

**Q.** And the “Control Before AII (single rat)” value [3]?
**A.** The value was 265 mmHg and 235 mmHg.

**Q.** What about the “Response After AII (single rat)” value [3] of the same compound?
**A.** Its value is 270 mmHg and 250 mmHg.

**Q.** And the “Response Change (single rat)” value [3]?
**A.** Its value is 5 mmHg and 15 mmHg.

**Q.** What about the “% Inhibition” value [4] of the same compound?
**A.** Its value is 82%.

**Q.** And the “Average Change” value [4]?
**A.** Its value is 10 mmHg.

**Q.** What about the “Control Before AII (single rat)” value [4] of the same compound?
**A.** Its value is 235 mmHg and 230 mmHg.

**Q.** And the “Response After AII (single rat)” value [4]?
**A.** Its value is 250 mmHg and 235 mmHg.

**Q.** What about the “Response Change (single rat)” value [4] of the same compound?
**A.** The value was 15 mmHg and 5 mmHg.

**Q.** And the “% Inhibition” value [5]?
**A.** Its value is 77%.

**Q.** What about the “Average Change” value [5] of the same compound?
**A.** Its value is 12.5 mmHg.

**Q.** And the “Control Before AII (single rat)” value [5]?
**A.** Its value is 210 mmHg and 240 mmHg.

**Q.** And the “Response After AII (single rat)” value [5]?
**A.** The value was 225 mmHg and 250 mmHg.

**Q.** And the “Response Change (single rat)” value [5]?
**A.** The value was 15 mmHg and 10 mmHg.

**Q.** And the “% Inhibition” value [6]?
**A.** Its value is 73%.

**Q.** And the “Average Change” value [6]?
**A.** Its value is 15 mmHg.

**Q.** What about the “Control Before AII (single rat)” value [6] of the same compound?
**A.** The value was 215 mmHg and 220 mmHg.

**Q.** What about the “Response After AII (single rat)” value [6] of the same compound?
**A.** Its value is 235 mmHg and 230 mmHg.

**Q.** And the “Response Change (single rat)” value [6]?
**A.** The value was 20 mmHg and 10 mmHg.

**Q.** What about the “% Inhibition” value [7] of the same compound?
**A.** The value was 82%.

**Q.** What about the “Average Change” value [7] of the same compound?
**A.** Its value is 10 mmHg.

**Q.** What about the “Control Before AII (single rat)” value [7] of the same compound?
**A.** The value was 220 mmHg and 215 mmHg.

**Q.** And the “Response After AII (single rat)” value [7]?
**A.** The value was 235 mmHg and 220 mmHg.

**Q.** And the “Response Change (single rat)” value [7]?
**A.** Its value is 15 mmHg and 5 mmHg.

**Q.** What about the “% Inhibition” value [8] of the same compound?
**A.** Its value is 73%.

**Q.** What about the “Average Change” value [8] of the same compound?
**A.** Its value is 15 mmHg.

**Q.** What about the “Control Before AII (single rat)” value [8] of the same compound?
**A.** The value was 210 mmHg and 200 mmHg.

**Q.** And the “Response After AII (single rat)” value [8]?
**A.** Its value is 220 mmHg.

**Q.** And the “Response Change (single rat)” value [8]?
**A.** Its value is 10 mmHg and 20 mmHg.

**Q.** And the “% Inhibition” value [9]?
**A.** The value was 86%.

**Q.** And the “Average Change” value [9]?
**A.** The value was 10 mmHg.

**Q.** What about the “Control Before AII (single rat)” value [9] of the same compound?
**A.** Its value is 265 mmHg and 230 mmHg.

**Q.** What about the “Response After AII (single rat)” value [9] of the same compound?
**A.** The value was 270 mmHg and 245 mmHg.

**Q.** And the “Response Change (single rat)” value [9]?
**A.** The value was 5 mmHg and 15 mmHg.

**Q.** And the “% Inhibition” value [10]?
**A.** Its value is 72%.

**Q.** What about the “Average Change” value [10] of the same compound?
**A.** Its value is 20 mmHg.

**Q.** And the “Control Before AII (single rat)” value [10]?
**A.** The value was 230 mmHg and 235 mmHg.

**Q.** And the “Response After AII (single rat)” value [10]?
**A.** The value was 250 mmHg and 255 mmHg.

**Q.** What about the “Response Change (single rat)” value [10] of the same compound?
**A.** The value was 20 mmHg.

**Q.** And the “% Inhibition” value [11]?
**A.** Its value is 65%.

**Q.** And the “Average Change” value [11]?
**A.** The value was 25 mmHg.

**Q.** What about the “Control Before AII (single rat)” value [11] of the same compound?
**A.** Its value is 200 mmHg and 215 mmHg.

**Q.** What about the “Response After AII (single rat)” value [11] of the same compound?
**A.** Its value is 230 mmHg and 235 mmHg.

**Q.** And the “Response Change (single rat)” value [11]?
**A.** The value was 30 mmHg and 20 mmHg.

**Q.** And the “% Inhibition” value [12]?
**A.** The value was 79%.

**Q.** And the “Average Change” value [12]?
**A.** The value was 15 mmHg.

**Q.** And the “Control Before AII (single rat)” value [12]?
**A.** Its value is 210 mmHg and 220 mmHg.

**Q.** And the “Response After AII (single rat)” value [12]?
**A.** Its value is 225 mmHg and 235 mmHg.

**Q.** What about the “Response Change (single rat)” value [12] of the same compound?
**A.** The value was 15 mmHg.

**Q.** What about the “% Inhibition” value [13] of the same compound?
**A.** The value was 79%.

**Q.** And the “Average Change” value [13]?
**A.** Its value is 15 mmHg.

**Q.** What about the “Control Before AII (single rat)” value [13] of the same compound?
**A.** The value was 215 mmHg.

**Q.** And the “Response After AII (single rat)” value [13]?
**A.** The value was 235 mmHg and 225 mmHg.

**Q.** And the “Response Change (single rat)” value [13]?
**A.** Its value is 20 mmHg and 10 mmHg.

**Q.** What about the “% Inhibition” value [14] of the same compound?
**A.** Its value is 79%.

**Q.** And the “Average Change” value [14]?
**A.** The value was 15 mmHg.

**Q.** And the “Control Before AII (single rat)” value [14]?
**A.** Its value is 210 mmHg.

**Q.** And the “Response After AII (single rat)” value [14]?
**A.** Its value is 230 mmHg and 220 mmHg.

**Q.** What about the “Response Change (single rat)” value [14] of the same compound?
**A.** The value was 20 mmHg and 10 mmHg.
